For 22 compounds, IC50 results are on record in patent publication US20260364089A1, “PYRIDOPYRIMIDINE KRAS INHIBITORS” (Treeline Biosciences, Inc., priority 2022, published 2026).

The structures appear in SMILES notation.

T1 sequence (P01116 1-169 G12V): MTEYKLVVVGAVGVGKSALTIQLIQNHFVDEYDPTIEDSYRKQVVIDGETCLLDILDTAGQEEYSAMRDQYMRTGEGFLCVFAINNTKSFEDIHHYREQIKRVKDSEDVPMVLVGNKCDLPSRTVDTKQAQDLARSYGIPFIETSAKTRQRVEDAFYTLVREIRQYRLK

One experiment has as its target T1, KRas G12V (Homo sapiens, UniProt P01116, G12V).
T1 construct: Biotinylated KRas G12V (aa 1-169) loaded with GDP nucleotide; biotin (biotinylated)
The experiment can be described thus: SOS1-Catalyzed Nucleotide Exchange Assay, KRas G12V (Method 2). It counts as biochemical. To be noted: Method 2, A; 5 nM KRas G12V (aa 1-169, GDP-loaded), 50 nM SOS1; read-out: KRas G12V IC50 (nM) (Method 2, A). Here is the method: KRas G12V [Method 2]: Compounds were pre-dispensed via Echo liquid handling (acoustic, touch-free) to generate assay ready plates (ARP). More precisely, a 10-point concentration response curve for each compound was prepared with appropriate top concentration (1 μM, 10 μM, 100 μM). Biotinylated KRas G12V (aa 1-169) loaded with GDP nucleotide and Streptavidin-Europium (SA-EU, Columbia Biosciences) were preincubated in assay buffer (20 mM HEPES pH 7.4, 150 mM NaCl, 5 mM MgCl2, 1 mM DTT, 0.01% Brij-35, 0.3 mg/mL BSA) on ice for 30 min. Separately SOS1 (aa 546-1049) and EDA-GTP-DY647P1 (Jena Bioscience) were preincubated in assay buffer on ice for 30 min. After 30 minutes of incubation for the assay components, 5 μL buffer and 5 μL of KRas G12V-SA-Eu were added to each well of the ARP. After a further 30 min, 5 μL of SOS1-EDA-GTP-D467P1 was added to start the nucleotide exchange reaction. Final concentration in the assay were 5 nM KRas G12V, 50 nM SOS1 (aa 564-1049). The reaction was allowed to proceed for 60-90 minutes after which the plate was read on a plate reader. After normalization of the raw data, the data was fit to a four-parameter logistic curve.
Regarding `O=C1CCCCc2c(Cl)cc(O)cc2-c2ncc3c(nc(OC[C@@]45CCCN4C[C@H](F)C5)nc3c2F)N2CCCC(O)(CCN1)C2` (single isomer, unassigned) [Compound 140b], the IC50 was ≤ 100 nM.

In the case of `O=C1CCCc2c(F)ccc3cc(O)cc(c23)-c2ncc3c(nc(OC[C@@]45CCCN4C[C@H](F)C5)nc3c2F)N2CCCC(CN1)C2` (stereo partly drawn) [Compound 135a, 2^8,3^7-difluoro-2^2-(((2R,7aS)-2-fluorotetrahydro-1H-pyrrolizin-7a(5H)-yl)methoxy)-3^3-hydroxy-8-aza-2(4,7)-pyrido[4,3-d]pyrimidina-1(1,3)-piperidina-3(1,8)-naphthalenacyclononaphan-7-one], the IC50 is ≤ 100 nM.

As to `Nc1cc(Cl)c2c(c1)-c1ncc3c(nc(OC[C@@]45CCCN4C[C@H](F)C5)nc3c1F)N1CCCC(CCNC(=O)CCCC2)C1` (stereo partly drawn) [Compound 154a, 3^5-amino-3^3-chloro-2^8-fluoro-2^2-(((2R,7aS)-2-fluorotetrahydro-1H-pyrrolizin-7a(5H)-yl)methoxy)-9-aza-2(4,7)-pyrido[4,3-d]pyrimidina-1(1,3)-piperidina-3(1,2)-benzenacycloundecaphan-8-one], the concentration for half-maximal inhibition (IC50) was ≤ 100 nM.

For `Nc1cc(Cl)c2c(c1)-c1c(Cl)cc3c(nc(OC[C@@]45CCCN4C[C@H](F)C5)nc3c1F)N1CCCC(CCNC(=O)CCCC2)C1` (stereo partly drawn) [Compound 155a, 3^5-amino-2^6,3^3-dichloro-2^8-fluoro-2^2-(((2R,7aS)-2-fluorotetrahydro-1H-pyrrolizin-7a(5H)-yl)methoxy)-9-aza-2(4,7)-quinazolina-1(1,3)-piperidina-3(1,2)-benzenacycloundecaphan-8-one], the concentration for half-maximal inhibition (IC50) fell in the range of 1000 to 10000 nM.

With `Nc1cc(Cl)c2c(c1)-c1ncc3c(nc(OC[C@@]45CCCN4C[C@H](F)C5)nc3c1F)N1CCCC(O)(CCNC(=O)CCCC2)C1` (stereo partly drawn) [Compound 156a, 3^5-amino-3^3-chloro-2^8-fluoro-2^2-(((2R,7aS)-2-fluorotetrahydro-1H-pyrrolizin-7a(5H)-yl)methoxy)-13-hydroxy-9-aza-2(4,7)-pyrido[4,3-d]pyrimidina-1(1,3)-piperidina-3(1,2)-benzenacycloundecaphan-8-one], the IC50 is ≤ 100 nM.

Regarding `Nc1ccc2c(c1)-c1ncc3c(nc(OC[C@@]45CCCN4C[C@H](F)C5)nc3c1F)N1CCCC(O)(CCNC(=O)CCCC2)C1` (stereo partly drawn) [Compound 157a, 3^5-amino-2^8-fluoro-2^2-(((2R,7aS)-2-fluorotetrahydro-1H-pyrrolizin-7a(5H)-yl)methoxy)-1^3-hydroxy-9-aza-2(4,7)-pyrido[4,3-d]pyrimidina-1(1,3)-piperidina-3(1,2)-benzenacycloundecaphan-8-one], the IC50 fell in the range of 1000 to 10000 nM.

With `Nc1cc(Cl)c2c(c1)-c1c(Cl)cc3c(nc(OC[C@@]45CCCN4C[C@H](F)C5)nc3c1F)N1CCCC(O)(CCNC(=O)CCCC2)C1` (stereo partly drawn) [Compound 158a, 3^5-amino-2^6,3^3-dichloro-2^8-fluoro-2^2-(((2R,7aS)-2-fluorotetrahydro-1H-pyrrolizin-7a(5H)-yl)methoxy)-1^3-hydroxy-9-aza-2(4,7)-quinazolina-1(1,3)-piperidina-3(1,2)-benzenacycloundecaphan-8-one], the IC50 was 1000 to 10000 nM.

On to `Nc1cc2c(cc1F)CCCCC(=O)NCCC1CCCN(C1)c1nc(OC[C@@]34CCCN3C[C@H](F)C4)nc3c(F)c-2ncc13` (stereo partly drawn) [Compound 159a, 3^5-amino-2^8,3^4-difluoro-2^2-(((2R,7aS)-2-fluorotetrahydro-1H-pyrrolizin-7a(5H)-yl)methoxy)-9-aza-2(4,7)-pyrido[4,3-d]pyrimidina-1(1,3)-piperidina-3(1,2)-benzenacycloundecaphan-8-one], for which the IC50 lay in the range of 1000 to 10000 nM.

Regarding `Nc1ccc2c(c1F)-c1ncc3c(nc(OC[C@@]45CCCN4C[C@H](F)C5)nc3c1F)N1CCCC(CCNC(=O)CCCC2)C1` (stereo partly drawn) [Compound 160a, 3^5-amino-2^8,3^6-difluoro-2^2-(((2R,7aS)-2-fluorotetrahydro-1H-pyrrolizin-7a(5H)-yl)methoxy)-9-aza-2(4,7)-pyrido[4,3-d]pyrimidina-1(1,3)-piperidina-3(1,2)-benzenacycloundecaphan-8-one], the IC50 lay in the range of 10000 to 30000 nM.

Consider `Nc1cc2c(cc1F)CCCCC(=O)NCCC1(O)CCCN(C1)c1nc(OC[C@@]34CCCN3C[C@H](F)C4)nc3c(F)c-2ncc13` (stereo partly drawn) [Compound 161a, 3^5-amino-2^8,3^4-difluoro-2^2-(((2R,7aS)-2-fluorotetrahydro-1H-pyrrolizin-7a(5H)-yl)methoxy)-1^3-hydroxy-9-aza-2(4,7)-pyrido[4,3-d]pyrimidina-1(1,3)-piperidina-3(1,2)-benzenacycloundecaphan-8-one], for which the IC50 was in the range of 1000 to 10000 nM.

Still in this experiment, the particulars now being: Method 2, B; 5 nM KRas G12V (aa 1-169, GDP-loaded), 50 nM SOS1; read-out: KRas G12V IC50 (nM) (Method 2, B).
Regarding `O=C1CCCCc2c(Cl)cc(O)cc2-c2ncc3c(nc(OC[C@@]45CCCN4C[C@H](F)C5)nc3c2F)N2CCCC(O)(CCN1)C2` (single isomer, unassigned) [Compound 140b], the IC50 is ≤ 100 nM.

For `O=C1CCCCc2c(Cl)cc(O)cc2-c2ncc3c(nc(OC[C@@]45CCCN4C[C@H](F)C5)nc3c2F)N2CCCC(O)(CCN1)C2` (single isomer, unassigned) [Compound 140c], the IC50 is ≤ 100 nM.

Turning to `Nc1cc2c(cc1F)CCCCC(=O)NCCC1CCCN(C1)c1nc(OC[C@@]34CCCN3C[C@H](F)C4)nc3c(F)c-2ncc13` (single isomer, unassigned) [Compound 159b], the half-maximal inhibitory concentration (IC50) lay in the range of 1000 to 10000 nM.

On to `Nc1cc2c(cc1F)CCCCC(=O)NCCC1CCCN(C1)c1nc(OC[C@@]34CCCN3C[C@H](F)C4)nc3c(F)c-2ncc13` (single isomer, unassigned) [Compound 159c], for which the IC50 fell in the range of 10000 to 30000 nM.

In the case of `Nc1cc2c(c(Cl)n1)CCCCC(=O)NCCC1(O)CCCN(C1)c1nc(OC[C@@]34CCCN3C[C@H](F)C4)nc3c(F)c-2c(F)cc13` (single isomer, unassigned) [Compound 188a], the IC50 is 10000 to 30000 nM.

Take `CN(C)CC1(COc2nc3c4ccc(c(F)c4n2)-c2c(c(Cl)cc4[nH]ncc24)CCCCC(=O)NCCC2CCCN3C2)CC1` (single isomer, unassigned) [Compound 197a, 1^6-chloro-2^2-((1-((dimethylamino)methyl)cyclopropyl)methoxy)-2^8-fluoro-1^1H-6-aza-2(7,4)-quinazolina-1(4,5)-indazola-3(1,3)-piperidinacycloundecaphan-7-one]: the concentration for half-maximal inhibition (IC50) was ≤ 100 nM.

Consider `CN(C)CC1(COc2nc3c4ccc(c(F)c4n2)-c2c(c(Cl)cc4[nH]ncc24)CCCCC(=O)NCCC2CCCN3C2)CC1` (single isomer, unassigned) [Compound 197b, 1^6-chloro-2^2-((1-((dimethylamino)methyl)cyclopropyl)methoxy)-2^8-fluoro-1^1H-6-aza-2(7,4)-quinazolina-1(4,5)-indazola-3(1,3)-piperidinacycloundecaphan-7-one], for which the IC50 was ≤ 100 nM.

Consider `O=C1CCCCc2c(Cl)cc3[nH]ncc3c2-c2ccc3c(nc(OC[C@@]45CCCN4C[C@H](F)C5)nc3c2F)N2CCCC(CCN1)C2` (single isomer, unassigned) [Compound 202a], for which the half-inhibitory concentration (IC50) was ≤ 100 nM.

On to `O=C1CCCCc2c(Cl)cc3[nH]ncc3c2-c2ccc3c(nc(OC[C@@]45CCCN4C[C@H](F)C5)nc3c2F)N2CCCC(CCN1)C2` (single isomer, unassigned) [Compound 202b], for which the IC50 is ≤ 100 nM.

Consider `O=C1CCCc2c(F)ccc3cc(O)cc(c23)-c2ncc3c(nc(OC[C@@]45CCCN4C[C@H](F)C5)nc3c2F)N2CCCC(CCN1)C2` (stereo partly drawn) [Compound 118a, 2^8,3^7-difluoro-2^2-(((2R,7aS)-2-fluorotetrahydro-1H-pyrrolizin-7a(5H)-yl)methoxy)-3^3-hydroxy-8-aza-2(4,7)-pyrido[4,3-d]pyrimidina-1(1,3)-piperidina-3(1,8)-naphthalenacyclodecaphan-7-one], for which the IC50 was ≤ 100 nM.

In the case of `O=C1CCCc2c(F)ccc3cc(O)cc(c23)-c2ncc3c(nc(OC[C@@]45CCCN4C[C@H](F)C5)nc3c2F)N2CCCC(O)(CCN1)C2` (stereo partly drawn) [Compound 136a, 2^8,3^7-difluoro-2^2-(((2R,7aS)-2-fluorotetrahydro-1H-pyrrolizin-7a(5H)-yl)methoxy)-1^3,3^3-dihydroxy-8-aza-2(4,7)-pyrido[4,3-d]pyrimidina-1(1,3)-piperidina-3(1,8)-naphthalenacyclodecaphan-7-one], the half-inhibitory concentration (IC50) was ≤ 100 nM.

Consider `Nc1cc(Cl)c2c(c1)-c1ncc3c(nc(OC[C@@]45CCCN4C[C@H](F)C5)nc3c1F)N1CCOCC(CNC(=O)CCCC2)C1` (stereo partly drawn) [Compound 162a, 3^5-amino-3^3-chloro-2^8-fluoro-2^2-(((2R,7aS)-2-fluorotetrahydro-1H-pyrrolizin-7a(5H)-yl)methoxy)-9-aza-1(4,6)-oxazepana-2(4,7)-pyrido[4,3-d]pyrimidina-3(1,2)-benzenacyclodecaphan-8-one], for which the IC50 lay within 100 to 1000 nM.

As for `Nc1cc2c(cc1F)CCCCC(=O)NCCC1CCCN(C1)c1nc(OC[C@@]34CCCN3C[C@H](F)C4)nc3c(F)c-2ccc13` (stereo partly drawn) [Compound 163a, 3^5-amino-2^8,3^4-difluoro-2^2-(((2R,7aS)-2-fluorotetrahydro-1H-pyrrolizin-7a(5H)-yl)methoxy)-9-aza-2(4,7)-quinazolina-1(1,3)-piperidina-3(1,2)-benzenacycloundecaphan-8-one], the IC50 lay within 1000 to 10000 nM.
